Reference: US20120165331A1, “Di/tri-aza-spiro-C9-C11alkanes” (priority 2010, published 2012)

Columns and labels:
[1] = target: T1, human orexin 2 receptor (Homo sapiens, UniProt O43614); experiment: Calcium accumulation in cells (FLIPR), antagonism of orexin A, human orexin 2 receptor; type: cell-based; settings: for Ki: calcium accumulation, antagonism of orexin A, Cheng-Prusoff corrected, read-out: FLIPR hOx2R Ki; for inhibition at 10 µM: measured at a concentration of 10 μM of compound, read-out: FLIPR hOx2R % inhibition
T1 construct: expressed in transfected cells
T1 sequence (O43614 1-444): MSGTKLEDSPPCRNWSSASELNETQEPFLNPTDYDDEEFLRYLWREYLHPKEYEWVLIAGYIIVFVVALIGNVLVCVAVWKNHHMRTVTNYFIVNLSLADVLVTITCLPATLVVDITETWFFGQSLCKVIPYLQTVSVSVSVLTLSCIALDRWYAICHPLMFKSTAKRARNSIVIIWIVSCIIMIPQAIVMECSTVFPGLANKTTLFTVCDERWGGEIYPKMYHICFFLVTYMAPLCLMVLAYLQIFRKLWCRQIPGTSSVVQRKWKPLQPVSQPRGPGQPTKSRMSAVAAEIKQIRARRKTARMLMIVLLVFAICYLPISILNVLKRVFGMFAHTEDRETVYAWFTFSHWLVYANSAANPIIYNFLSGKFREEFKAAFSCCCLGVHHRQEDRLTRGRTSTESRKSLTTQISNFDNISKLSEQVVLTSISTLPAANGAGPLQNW

[2] = target: T2, human orexin 1 receptor (Homo sapiens, UniProt O43613); experiment: Calcium accumulation in cells (FLIPR), antagonism of orexin A, human orexin 1 receptor; type: cell-based; settings: for Ki: calcium accumulation, antagonism of orexin A, Cheng-Prusoff corrected, read-out: FLIPR hOx1R Ki; for inhibition at 10 µM: measured at a concentration of 10 μM of compound, read-out: FLIPR hOx1R % inhibition
T2 construct: expressed in transfected cells
T2 sequence (O43613 1-425): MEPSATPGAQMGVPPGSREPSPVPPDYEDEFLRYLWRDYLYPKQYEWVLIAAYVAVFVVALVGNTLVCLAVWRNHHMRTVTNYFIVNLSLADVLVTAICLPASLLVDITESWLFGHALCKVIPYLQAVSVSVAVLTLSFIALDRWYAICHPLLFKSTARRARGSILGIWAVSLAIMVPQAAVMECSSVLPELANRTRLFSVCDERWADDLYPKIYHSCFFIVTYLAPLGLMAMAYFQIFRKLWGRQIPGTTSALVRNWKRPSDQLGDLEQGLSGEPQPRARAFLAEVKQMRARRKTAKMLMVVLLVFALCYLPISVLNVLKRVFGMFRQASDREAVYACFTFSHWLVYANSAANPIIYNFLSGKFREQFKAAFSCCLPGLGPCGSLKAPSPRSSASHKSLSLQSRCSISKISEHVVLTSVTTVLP

Compound | Ki [1] | Ki [2] | inhibition at 10 µM [2] | inhibition at 10 µM [1]
O=C1N(Cc2c[nH]c3ccccc23)CCC12CCN(c1nc3ccccc3o1)CC2 [Example 3.13, 8-Benzooxazol-2-yl-2-(1H-indol-3-ylmethyl)-2,8-diaza-spiro[4.5]decan-1-one] | 0.342 µM | 0.342 µM |  | 
COc1ccnc(N2CCC3(CCN(Cc4c[nH]c5ccccc45)C3=O)CC2)n1 [Example 3.14, 2-(1H-Indol-3-ylmethyl)-8-(4-methoxy-pyrimidin-2-yl)-2,8-diaza-spiro[4.5]decan-1-one] | 0.134 µM | 2.77 µM |  | 
COc1ccnc(N2CCC3(CCN(Cc4c[nH]c5ncccc45)C3=O)CC2)n1 [Example 3.15, 8-(4-Methoxy-pyrimidin-2-yl)-2-(1H-pyrrolo[2,3-b]pyridin-3-ylmethyl)-2,8-diaza-spiro[4.5]decan-1-one] | 0.637 µM |  | 26% | 
COc1ccnc(N2CCC3(CCN(Cc4n[nH]c5ccccc45)C3=O)CC2)n1 [Example 3.16, 2-(1H-Indazol-3-ylmethyl)-8-(4-methoxy-pyrimidin-2-yl)-2,8-diaza-spiro[4.5]decan-1-one] | 0.673 µM |  | 39% | 
COc1ccnc(N2CCC3(CCN(Cc4ccccc4-c4nc(C)no4)C3=O)CC2)n1 [Example 3.17, 8-(4-Methoxy-pyrimidin-2-yl)-2-[2-(3-methyl-[1,2,4]oxadiazol-5-yl)-benzyl]-2,8-diaza-spiro[4.5]decan-1-one] | 0.298 µM |  | 37% | 
Cc1cc(C)nc(N2CCC3(CCN(Cc4ccccc4-c4nc(C)no4)C3=O)CC2)n1 [Example 3.19, 8-(4,6-Dimethyl-pyrimidin-2-yl)-2-[2-(3-methyl-[1,2,4]oxadiazol-5-yl)-benzyl]-2,8-diaza-spiro[4.5]decan-1-one] | 0.127 µM |  | 22% | 
COc1cc(C)nc(N2CCC3(CCN(Cc4c[nH]c5ncccc45)C3=O)CC2)n1 [Example 3.22, 2-((1H-pyrrolo[2,3-b]pyridin-3-yl)methyl)-8-(4-methoxy-6-methylpyrimidin-2-yl)-2,8-diazaspiro[4.5]decan-1-one] | 0.246 µM |  | 24% | 
Cc1cc(C)nc(N2CCC3(CCN(Cc4ccc5[nH]ccc5c4)C3=O)CC2)n1 [Example 3.23, 2-((1H-indol-5-yl)methyl)-8-(4,6-dimethylpyrimidin-2-yl)-2,8-diazaspiro[4.5]decan-1-one] | 2.39 µM |  | 10% | 
Cc1cc(C)nc(N2CCC3(CCN(Cc4nn(C)nc4-c4ccccc4)C3=O)CC2)n1 [Example 3.24, 8-(4,6-dimethylpyrimidin-2-yl)-2-((2-methyl-5-phenyl-2H-1,2,3-triazol-4-yl)methyl)-2,8-diazaspiro[4.5]decan-1-one] | 0.117 µM |  | 25% | 
Cc1cc(C)nc(N2CCC3(CC2)NCN(Cc2c[nH]c4ccccc24)C3=O)n1 [Example 4.1, 3-((1H-indol-3-yl)methyl)-8-(4,6-dimethylpyrimidin-2-yl)-1,3,8-triazaspiro[4.5]decan-4-one] | 2.12 µM |  | 12% | 
COc1ccnc(N2CCC3(CCN(Cc4c[nH]c5ccccc45)C3=O)C2)n1 (stereo not shown) [Example 5.1, 2-((1H-indol-3-yl)methyl)-7-(4-methoxypyrimidin-2-yl)-2,7-diazaspiro[4.4]nonan-1-one] | 0.132 µM | 2.14 µM |  | 
COc1ccnc(N2CC[C@@]3(CCN(Cc4c[nH]c5ccccc45)C3=O)C2)n1 [Example 5.2, (R)-2-((1H-indol-3-yl)methyl)-7-(4-methoxypyrimidin-2-yl)-2,7-diazaspiro[4.4]nonan-1-one] | 1.26 µM |  | 49% | 
COc1ccnc(N2CC[C@]3(CCN(Cc4c[nH]c5ccccc45)C3=O)C2)n1 [Example 5.3, (S)-2-((1H-indol-3-yl)methyl)-7-(4-methoxypyrimidin-2-yl)-2,7-diazaspiro[4.4]nonan-1-one] | 0.103 µM | 2.64 µM |  | 
COc1cc(C)nc(N2CCC3(CCN(Cc4c[nH]c5ccccc45)C3=O)C2)n1 (stereo not shown) [Example 5.4, 2-((1H-indol-3-yl)methyl)-7-(4-methoxy-6-methylpyrimidin-2-yl)-2,7-diazaspiro[4.4]nonan-1-one] | 0.119 µM | 1.05 µM |  | 
O=C1N(Cc2c[nH]c3ccccc23)CCC12CCN(c1cnc3ccccc3n1)C2 (stereo not shown) [Example 5.5, 2-((1H-Indol-3-yl)methyl)-7-(quinoxalin-2-yl)-2,7-diazaspiro[4.4]nonan-1-one] | 0.43 µM | 1.23 µM |  | 
Cc1ccnc(N2CCC3(CCN(Cc4c[nH]c5ccccc45)C3=O)C2)n1 (stereo not shown) [Example 5.6, 2-((1H-Indol-3-yl)methyl)-7-(4-methylpyrimidin-2-yl)-2,7-diazaspiro[4.4]nonan-1-one] | 0.393 µM |  | 33% | 
Cc1cc(C)nc(N2CCC3(CCN(Cc4c[nH]c5ccccc45)C3=O)C2)n1 (stereo not shown) [Example 5.7, 2-((1H-Indol-3-yl)methyl)-7-(4,6-dimethylpyrimidin-2-yl)-2,7-diazaspiro[4.4]nonan-1-one] | 0.249 µM | 2.13 µM |  | 
O=C1N(Cc2c[nH]c3ccccc23)CCC12CCN(c1nc3ccccc3o1)C2 (stereo not shown) [Example 5.8, 2-((1H-Indol-3-yl)methyl)-7-(benzo[d]oxazol-2-yl)-2,7-diazaspiro[4.4]nonan-1-one] | 0.304 µM | 0.739 µM |  | 
Cc1cc(C)nc(N2CCC3(CCN(Cc4cccc5[nH]ccc45)C3=O)C2)n1 (stereo not shown) [Example 5.9, 2-((1H-Indol-4-yl)methyl)-7-(4,6-dimethylpyrimidin-2-yl)-2,7-diazaspiro[4.4]nonan-1-one] | 1.29 µM |  | < 10% | 
COc1cc(C)nc(N2CCC3(CCN(Cc4cccc5[nH]ccc45)C3=O)C2)n1 (stereo not shown) [Example 5.10, 2-((1H-Indol-4-yl)methyl)-7-(4-methoxy-6-methylpyrimidin-2-yl)-2,7-diazaspiro[4.4]nonan-1-one] | 0.629 µM | 1.34 µM |  | 
COc1ccnc(N2CCC3(CCN(Cc4c[nH]c5ncccc45)C3=O)C2)n1 (stereo not shown) [Example 5.11, 2-((1H-Pyrrolo[2,3-b]pyridin-3-yl)methyl)-7-(4-methoxypyrimidin-2-yl)-2,7-diazaspiro[4.4]nonan-1-one] |  |  | < 10% | 26%
COc1ccnc(N2CCC3(CCN(Cc4n[nH]c5ccccc45)C3=O)C2)n1 (stereo not shown) [Example 5.12, 2-((1H-Indazol-3-yl)methyl)-7-(4-methoxypyrimidin-2-yl)-2,7-diazaspiro[4.4]nonan-1-one] | 0.711 µM |  | 40% | 
COc1ccnc(N2CCC3(CCN(Cc4ccccc4-c4nc(C)no4)C3=O)C2)n1 (stereo not shown) [Example 5.13, 7-(4-Methoxypyrimidin-2-yl)-2-(2-(3-methyl-1,2,4-oxadiazol-5-yl)benzyl)-2,7-diazaspiro[4.4]nonan-1-one] | 0.673 µM | 4.16 µM |  | 
COc1cccc(-c2n[nH]nc2CN2CCC3(CCN(c4nccc(OC)n4)C3)C2=O)c1 (stereo not shown) [Example 5.14, 2-((5-(3-Methoxyphenyl)-2H-1,2,3-triazol-4-yl)methyl)-7-(4-methoxypyrimidin-2-yl)-2,7-diazaspiro[4.4]nonan-1-one] | 0.146 µM | 0.544 µM |  | 
O=C1N(Cc2c[nH]c3ccccc23)CCC12CCN(c1nc3cc(Cl)ccc3o1)C2 (stereo not shown) [Example 5.15, 2-((1H-Indol-3-yl)methyl)-7-(5-chlorobenzo[d]oxazol-2-yl)-2,7-diazaspiro[4.4]nonan-1-one] |  |  | 29% | 37%
O=C1N(Cc2c[nH]c3ccccc23)CCC12CCN(c1ncc3cc(F)ccc3n1)C2 (stereo not shown) [Example 5.16, 2-((1H-Indol-3-yl)methyl)-7-(6-fluoroquinazolin-2-yl)-2,7-diazaspiro[4.4]nonan-1-one] | 0.509 µM | 1.12 µM |  | 
O=C1N(Cc2c[nH]c3ccccc23)CCC12CCN(c1cc(C(F)(F)F)ncn1)C2 (stereo not shown) [Example 5.17, 2-((1H-Indol-3-yl)methyl)-7-(6-(trifluoromethyl)pyrimidin-4-yl)-2,7-diazaspiro[4.4]nonan-1-one] | 1.79 µM |  | 49% | 
O=C1N(Cc2c[nH]c3ccccc23)CCC12CCN(c1nccc(-n3ccnc3)n1)C2 (stereo not shown) [Example 5.18, 7-(4-(1H-imidazol-1-yl)pyrimidin-2-yl)-2-((1H-indol-3-yl)methyl)-2,7-diazaspiro[4.4]nonan-1-one] | 1.24 µM | 1.89 µM |  | 
O=C1N(Cc2c[nH]c3ccccc23)CCC12CCN(c1ccnc(-n3ccnc3)n1)C2 (stereo not shown) [Example 5.19, 7-(2-(1H-imidazol-1-yl)pyrimidin-4-yl)-2-((1H-indol-3-yl)methyl)-2,7-diazaspiro[4.4]nonan-1-one] | 0.665 µM | 1.19 µM |  | 
